In ChEMBL document CHEMBL1130453, “Synthesis and biological activity of a new anti-factor Xa pentasaccharide with a C-interglycosidic bond” (Bioorg Med Chem Lett, 1997):

Assays:
[1] = biological target: Coagulation factor X (Homo sapiens) (UniProt P00742); assay: Anti-factor Xa activity by amidolytic method.
Antithrombin-III = Antithrombin-III (Homo sapiens, UniProt P01008); assay: In vitro binding affinity against antithrombin III (AT III) was determined by fluorescence spectroscopy
Sequence of Antithrombin-III (P01008 whole entry): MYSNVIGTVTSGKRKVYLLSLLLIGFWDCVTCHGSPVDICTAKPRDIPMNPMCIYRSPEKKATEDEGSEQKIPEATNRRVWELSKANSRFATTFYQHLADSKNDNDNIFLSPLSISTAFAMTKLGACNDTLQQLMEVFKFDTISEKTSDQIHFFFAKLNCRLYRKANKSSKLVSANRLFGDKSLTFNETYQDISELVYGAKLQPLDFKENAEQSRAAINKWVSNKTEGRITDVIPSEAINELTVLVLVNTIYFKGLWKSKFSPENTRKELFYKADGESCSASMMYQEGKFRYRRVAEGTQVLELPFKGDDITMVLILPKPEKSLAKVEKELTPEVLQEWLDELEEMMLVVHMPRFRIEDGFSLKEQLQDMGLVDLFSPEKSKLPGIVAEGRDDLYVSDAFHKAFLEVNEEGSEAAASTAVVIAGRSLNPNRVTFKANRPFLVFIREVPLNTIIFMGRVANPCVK

Sequence of Coagulation factor X (Homo sapiens) (P00742 41-179 limits assumed): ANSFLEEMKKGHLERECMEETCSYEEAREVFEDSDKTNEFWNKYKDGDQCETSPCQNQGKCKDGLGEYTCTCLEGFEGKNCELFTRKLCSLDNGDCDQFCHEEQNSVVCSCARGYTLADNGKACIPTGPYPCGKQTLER
Sequence of Coagulation factor X (Homo sapiens) (P00742 235-488 limits assumed): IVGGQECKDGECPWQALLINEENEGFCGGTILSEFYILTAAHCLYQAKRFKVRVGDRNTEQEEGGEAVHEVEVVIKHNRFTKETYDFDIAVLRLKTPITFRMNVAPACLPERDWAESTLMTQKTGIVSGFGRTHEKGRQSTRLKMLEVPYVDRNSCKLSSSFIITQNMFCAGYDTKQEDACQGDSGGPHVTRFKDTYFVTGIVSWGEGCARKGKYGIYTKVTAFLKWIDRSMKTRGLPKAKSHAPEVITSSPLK

Row | SMILES | Anti-Factor Xa activity [1] [U/mg] | Kd (Antithrombin-III) [nM]
1 | CO[C@H]1O[C@@H](COS(=O)(=O)O)[C@@H](O[C@@H]2O[C@@H](C(=O)O)[C@H](O[C@H]3O[C@@H](COS(=O)(=O)O)[C@@H](O[C@@H]4O[C@@H](C(=O)O)[C@@H](O[C@H]5O[C@@H](COS(=O)(=O)O)[C@@H](OC)[C@H](OC)[C@@H]5OC)[C@H](OC)[C@@H]4OC)[C@H](OS(=O)(=O)O)[C@@H]3OS(=O)(=O)O)[C@H](OC)[C@H]2OC)[C@H](OS(=O)(=O)O)[C@@H]1OS(=O)(=O)O | 1180 | –
2 | CO[C@H]1O[C@@H](COS(=O)(=O)O)[C@@H](O[C@@H]2O[C@@H](C(=O)O)[C@H](O[C@H]3O[C@@H](COS(=O)(=O)O)[C@@H](O[C@@H]4O[C@@H](C(=O)O)[C@@H](C[C@H]5O[C@@H](COS(=O)(=O)O)[C@@H](OC)[C@H](OC)[C@@H]5OC)[C@H](OC)[C@@H]4OC)[C@H](OS(=O)(=O)O)[C@@H]3OS(=O)(=O)O)[C@H](OC)[C@H]2OC)[C@H](OS(=O)(=O)O)[C@@H]1OS(=O)(=O)O | 880 | 2.8
